# “Also recorded” adds a separate entry of the source.
# System: wild-type Drosophila
# Experiment: T-maze choice assay, avoidance behavior to CO2, wild-type flies
# Assay type: in vivo
# Details: 0.67% CO2; 1-hexanol 10^-1, 2,3-butanedione 10^-2
# Method: (a) A t-maze is used to show preference to a test odor or to a solvent. Flies are starved 24 hrs prior to assay. All assays performed for 1-min in the dark. A negative preference index indicates avoidance. (a) Flies in a T-maze were offered a choice between a 15 ml tube infused with 0.1ml of CO2 prior to start of assay, and another that was infused with air. (b) wildtype and Or83b−/− flies were presented with CO2, a mixture of CO2 and 2,3-butanedione (d4on), or d4on alone. (c) Flies were exposed to 10 ul d4on 10^−2 for 1 min, allowed to recover for 2 min in clean air and then assayed for avoidance to CO2. A control exposure to 1 min of 2-methylphenol (2 mpol) at 10^−2 and then a recovery period of 2 min is also assayed for avoidance behavior to CO2. (d) Flies are exposed to d4on for 1 min, allowed to recover for 2 min, and then assayed for behavior to ethyl acetate (2AC). Behavior to 2AC without pre-exposure is also measured. […]
# T-maze behavioral testing using Drosophila stress odour, CO2, and mixtures were using techniques known in the art, with some modifications. […] The avoidance response was calculated as a Preference Index (PI)=(number of flies in test arm−number of flies in control arm)/(total number of flies in assay). […] The avoidance response was calculated as a Preference Index (PI)=(number of flies in test arm−number of flies in control arm)/(total number of flies in assay). […]
row,SMILES,avoidance behavior to CO2 (Preference Index)
1,"CC(=O)C(C)=O [2,3-butanedione]",reduction in mean avoidance behavior; also recorded: abolished
2,CCCCCCO [1-hexanol],reduction in mean avoidance behavior
